# Laboratory results published in ChEMBL document CHEMBL1770079, “Discovery of small molecule human FPR1 receptor antagonists” (Bioorg Med Chem Lett, 2011).
# pIC50, pKi: −log10 of the molar value. Active and inactive are the calls of the source. The rule behind the calls is not given here.
# Tests used:
# [1] = target: T1, fMet-Leu-Phe receptor (Homo sapiens) (UniProt P21462); test: Agonist activity at FPR1 in human neutrophils assessed as increase in calcium mobilization by FLIPR assay; assay type: functional; parameters: concentration or dose not given beside the values; conditions: concentration not given here
# T1 sequence (whole entry): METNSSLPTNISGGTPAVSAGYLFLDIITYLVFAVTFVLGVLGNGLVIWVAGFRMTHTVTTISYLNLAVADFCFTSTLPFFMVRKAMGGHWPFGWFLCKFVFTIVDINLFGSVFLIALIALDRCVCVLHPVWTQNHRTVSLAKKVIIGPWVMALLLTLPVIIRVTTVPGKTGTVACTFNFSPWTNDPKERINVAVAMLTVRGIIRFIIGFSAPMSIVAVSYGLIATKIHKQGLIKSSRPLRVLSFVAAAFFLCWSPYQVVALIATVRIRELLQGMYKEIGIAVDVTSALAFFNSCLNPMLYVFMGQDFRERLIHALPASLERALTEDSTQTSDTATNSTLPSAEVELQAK
# fMet-Leu-Phe receptor [2] = target: T2, fMet-Leu-Phe receptor (Homo sapiens, UniProt P21462); test: Intrinsic activity at FPR1 in human neutrophils assessed as increase in calcium mobilization by FLIPR assay relative to fMLF; assay type: functional
# T2 sequence (P21462 whole entry): T1 sequence (whole entry)
# [3] = Intrinsic clearance in human microsomes; assay type: ADME, Microsome
# [4] = target: T1, fMet-Leu-Phe receptor (Homo sapiens); test: Antagonist activity at FPR1 in human neutrophils assessed as inhibition of fMLF-stimulated calcium mobilization at 50 uM by FLIPR assay; assay type: functional
# fMet-Leu-Phe receptor [5] = target: T2, fMet-Leu-Phe receptor; test: Displacement of [3H]fMLF from human FPR1 expressed in CHO cells by scintillation counting; assay type: cell-based
# fMet-Leu-Phe receptor [6] = target: T2, fMet-Leu-Phe receptor; test: Antagonist activity at FPR1 in human neutrophils assessed as inhibition of fMLF-stimulated calcium mobilization by FLIPR assay; assay type: functional
# [7] = target: T3, N-formyl peptide receptor 2 (Homo sapiens) (UniProt P25090); test: Antagonist activity at FPR2 in human neutrophils assessed as inhibition of SHHGtide-stimulated intracellular calcium mobilisation at 50 uM by FLIPR assay; assay type: functional, cell-based
# T3 sequence (whole entry): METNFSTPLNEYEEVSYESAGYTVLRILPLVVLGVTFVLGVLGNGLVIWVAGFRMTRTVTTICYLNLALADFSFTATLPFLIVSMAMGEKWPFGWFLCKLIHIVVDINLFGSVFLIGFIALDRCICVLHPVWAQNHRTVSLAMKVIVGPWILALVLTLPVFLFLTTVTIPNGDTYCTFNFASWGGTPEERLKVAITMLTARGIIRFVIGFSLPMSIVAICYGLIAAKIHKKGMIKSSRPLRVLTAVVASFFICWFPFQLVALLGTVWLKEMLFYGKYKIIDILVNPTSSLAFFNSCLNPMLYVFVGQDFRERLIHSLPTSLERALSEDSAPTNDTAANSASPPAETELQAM
# [8] = target: T4, C-X-C chemokine receptor type 2 (Homo sapiens) (UniProt P25025); test: Antagonist activity at CXCR2 in human neutrophils assessed as inhibition of GROalpha-stimulated intracellular calcium mobilization at 50 uM by FLIPR assay; assay type: functional, cell-based
# T4 sequence (whole entry): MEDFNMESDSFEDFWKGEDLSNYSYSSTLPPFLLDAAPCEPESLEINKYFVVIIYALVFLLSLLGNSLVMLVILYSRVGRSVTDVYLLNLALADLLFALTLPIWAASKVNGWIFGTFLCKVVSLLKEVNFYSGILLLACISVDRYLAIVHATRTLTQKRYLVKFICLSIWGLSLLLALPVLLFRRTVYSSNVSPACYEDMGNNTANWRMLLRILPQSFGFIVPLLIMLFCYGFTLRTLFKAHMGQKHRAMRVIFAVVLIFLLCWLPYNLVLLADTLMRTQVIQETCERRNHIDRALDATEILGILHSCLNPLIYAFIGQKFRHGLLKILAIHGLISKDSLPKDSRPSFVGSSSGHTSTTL
# [9] = target: T5, C5a anaphylatoxin chemotactic receptor 1 (Homo sapiens) (UniProt P21730); test: Antagonist activity at C5aR in human neutrophils assessed as inhibition of C5a-stimulated intracellular calcium mobilization at 50 uM by FLIPR assay; assay type: functional, cell-based
# T5 sequence (whole entry): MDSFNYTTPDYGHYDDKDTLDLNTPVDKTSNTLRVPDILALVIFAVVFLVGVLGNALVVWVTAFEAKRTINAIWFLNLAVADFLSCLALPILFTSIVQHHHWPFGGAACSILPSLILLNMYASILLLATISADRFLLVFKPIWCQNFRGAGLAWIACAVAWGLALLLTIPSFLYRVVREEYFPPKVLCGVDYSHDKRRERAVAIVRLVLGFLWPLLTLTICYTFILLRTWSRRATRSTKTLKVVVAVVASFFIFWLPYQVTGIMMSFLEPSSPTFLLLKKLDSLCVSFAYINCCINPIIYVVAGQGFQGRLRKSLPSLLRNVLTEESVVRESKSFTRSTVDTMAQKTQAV
# fMet-Leu-Phe receptor [10] = target: T2, fMet-Leu-Phe receptor; test: Antagonist activity at human FPR1 in expressed in HEK293 cells assessed as inhibition of fMLF-stimulated intracellular calcium mobilisation after 5 mins by FLIPR assay; assay type: functional, cell-based
# fMet-Leu-Phe receptor [11] = target: T6, fMet-Leu-Phe receptor (Mus musculus, UniProt P33766); test: Antagonist activity at mouse FPR1 expressed in HEK293 cells assessed as inhibition of fMLFF-stimulated intracellular calcium mobilisation by FLIPR assay; assay type: functional, cell-based
# T6 sequence (P33766 whole entry): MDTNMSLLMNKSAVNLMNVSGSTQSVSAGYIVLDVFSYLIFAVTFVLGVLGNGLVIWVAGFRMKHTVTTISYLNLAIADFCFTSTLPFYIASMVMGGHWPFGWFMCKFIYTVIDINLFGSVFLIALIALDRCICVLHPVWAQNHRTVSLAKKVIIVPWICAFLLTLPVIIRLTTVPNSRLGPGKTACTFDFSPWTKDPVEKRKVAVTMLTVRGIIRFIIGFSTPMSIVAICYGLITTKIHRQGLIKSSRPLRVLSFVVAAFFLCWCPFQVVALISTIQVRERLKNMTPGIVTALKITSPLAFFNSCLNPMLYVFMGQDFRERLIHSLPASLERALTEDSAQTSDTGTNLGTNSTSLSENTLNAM
# [12] = Antagonist activity at rat FPR1 expressed in HEK293 cells assessed as inhibition of fMLF-stimulated intracellular calcium mobilisation by FLIPR assay; assay type: functional, cell-based
# [13] = target: T1, fMet-Leu-Phe receptor (Homo sapiens); test: Agonist activity at FPR1 in human neutrophils assessed as increase in calcium mobilization at 50 uM by FLIPR assay; assay type: functional
# fMet-Leu-Phe receptor [14] = target: T2, fMet-Leu-Phe receptor; test: Antagonist activity at FPR1 in human neutrophils assessed as inhibition of fMLF-stimulated degranulation after 15 mins by fluorescence assay; assay type: functional
# Hepatocyte = test: Intrinsic clearance in Sprague-Dawley rat hepatocytes; assay type: ADME, cell-based, Liver
# [15] = target: T1, fMet-Leu-Phe receptor (Homo sapiens); test: Antagonist activity at FPR1 in human neutrophils assessed as inhibition of PMA-stimulated neutrophil degranulation after 15 mins by fluorescence assay; assay type: functional
# [16] = target: T1, fMet-Leu-Phe receptor (Homo sapiens); test: Reversible inhibition of FPR1 in human neutrophils assessed as inhibition of fMLF-stimulated calcium mobilisation by FLIPR assay; assay type: functional
# THP-1 = test: Cytotoxicity against human THP1 cells assessed as cell viability after 24 hrs by Alamar blue assay; assay type: cell-based; conditions: THP-1, 24 h
# [17] = Solubility of the compound in 0.1 M phosphate buffer; assay type: physicochemical
# [18] = Chemical stability of the compound assessed as half life; assay type: physicochemical
# fMet-Leu-Phe receptor [19] = target: T2, fMet-Leu-Phe receptor; test: Antagonist activity at FPR1; assay type: functional
smiles,measurement,setting,value
CCOc1ccc2oc(C(=O)NC(CCSC)c3nc4ncccc4[nH]3)c(C)c2c1 (stereo not given),inhibition,[1],< 25%
Cc1cccc(C(NC(=O)c2ccccc2O)C(=O)Nc2c(C)cccc2C)c1C (stereo not given),pIC50,fMet-Leu-Phe receptor [2],7.10
CSCCC(NC(=O)c1sccc1Cl)c1ncc(-c2ccccc2)[nH]1 (stereo not given),inhibition,[1],< 25%
same,pIC50,fMet-Leu-Phe receptor [2],5.20
CCOc1ccc2oc(C(=O)NC(c3ccccc3)c3nc4ccccc4[nH]3)c(C)c2c1 (stereo not given),microsomal CLint,[3],14 µL/min/mg
same,inhibition,[4],< 25%
CSCCC(NC(=O)c1sccc1Cl)c1nc2ccccc2[nH]1 (stereo not given),pIC50,fMet-Leu-Phe receptor [2],5.70
CSCCC(NC(=O)c1ccccc1)c1nc2ccccc2[nH]1 (stereo not given),pIC50,fMet-Leu-Phe receptor [2],5.30
O=C(NC(C(=O)Nc1ccccc1)c1ccc(Cl)cc1)c1ccccc1O (stereo not given),pIC50,fMet-Leu-Phe receptor [2],5.30
CCOc1ccc2oc(C(=O)N[C@H](CSC)c3nc4ccccc4[nH]3)c(C)c2c1,pIC50,fMet-Leu-Phe receptor [2],6.20
Cc1cccc(C)c1NC(=O)C(NC(=O)c1ccccc1O)c1ccc(Cl)cc1 (stereo not given),pIC50,fMet-Leu-Phe receptor [2],6.10
CCOc1ccc2oc(C(=O)NC(CS(C)(=O)=O)c3nc4ccccc4[nH]3)c(C)c2c1 (stereo not given),microsomal CLint,[3],3 µL/min/mg
same,pIC50,fMet-Leu-Phe receptor [2],5.00
Cc1ccc(C(NC(=O)c2ccccc2O)C(=O)Nc2c(C)cccc2C)s1 (stereo not given),pIC50,fMet-Leu-Phe receptor [5],7.00
same,microsomal CLint,[3],43 µL/min/mg
same,pIC50,fMet-Leu-Phe receptor [6],6.40
same,pIC50,fMet-Leu-Phe receptor [2],6.50
same,inhibition,[7],< 25%
same,inhibition,[8],< 25%
same,inhibition,[9],< 25%
same,pIC50,fMet-Leu-Phe receptor [10],5.80
same,pIC50,fMet-Leu-Phe receptor [11],4.60
same,pIC50,[12],5.90
same,inhibition,[13],< 25%
same,pIC50,fMet-Leu-Phe receptor [14],6.40
same,CL,Hepatocyte,70 µL/min
same,inhibition,[15],< 25%
same,inhibition,[16],Active
same,pIC50,THP-1,4.10
same,solubility,[17],68 µM
same,half-life,[18],> 10.8 days
CC(C)C(C(=O)O)N1C(=O)/C(=C2/C(=O)N(C)c3ccccc32)SC1=S (stereo not given),pIC50,fMet-Leu-Phe receptor [19],5.30
CCOc1ccc2oc(C(=O)N[C@@H](CSC)c3nc4ccccc4[nH]3)c(C)c2c1,pIC50,fMet-Leu-Phe receptor [2],< 4.60
CCc1cc2c(=O)c(-c3nc4ccccc4n3C)c(C)oc2cc1OC(C)=O,pKi,fMet-Leu-Phe receptor [19],7.00
COc1ccccc1C(=O)NC(C(=O)Nc1c(C)cccc1C)c1ccc(Cl)cc1 (stereo not given),inhibition,[4],< 25%
CSCCC(NC(=O)c1ccccc1)c1nc2ccccc2n1Cc1ccc(C#N)cc1 (stereo not given),inhibition,[1],< 25%
same,pIC50,fMet-Leu-Phe receptor [2],6.50
CSCCC(NC(=O)Cc1ccccc1)c1nc2ccccc2[nH]1 (stereo not given),inhibition,[4],< 25%
O=C(NC(C(=O)NC1CCCCC1)c1ccc(Cl)cc1)c1ccccc1O (stereo not given),pIC50,fMet-Leu-Phe receptor [2],5.60
CSCCC(NC(=O)c1cnccn1)c1nc2ccccc2[nH]1 (stereo not given),pIC50,fMet-Leu-Phe receptor [2],5.00
